Results taken from publication PMC2607543, “Peptides Derived from HIV-1 Integrase that Bind Rev Stimulate Viral Genome Integration” (PLoS ONE, 2009).
Where no end group is shown, it is not given here.

Legend:
HIV-1 in Sup-T1 cells = experiment: Time-of-addition assay, viral p24 in Sup-T1 cells; format: cell-based; details: MOI 2; dextran sulfate 20 µM, AZT 2 µM, LEDGF 402–411 12.5 µM; p24 at 48 h PI; Fig 8C
Procedure: Figure 8 Virus-cell adsorption and viral reverse-transcriptase activity are not affected by the INr peptides. (A and B) Estimation of viral DNA in virus-infected cells: Sup-T1 cells were incubated with the indicated peptides or with AZT for 2 h and then were infected with HIV. Following another 6 h incubation, the viral Gag (A) or Nef (B) DNA sequences were amplified using specific primers. The reaction was terminated after 30 cycles. Lanes: 1) INr-1 (12.5 µM); 2) INr-2 (12.5 µM); 3) AZT (2 µM); 4) untreated cells; 5) uninfected cells. […] (C) Influence of the time of addition on P24 production: Sup-T1 cells were infected with HIV-1 at a MOI of 2, and the indicated constituents were added at different time points PI (0, 2, 4,…, 24 h). Viral p24 was determined at 48 h PI. No addition (Blue X); no virus (Gray diamond); dextran sulfate 20 µM (Brown asterisk); AZT 2 µM (Red empty circle); INr-1 12.5 µM (Green diamond); INr-2 12.5 µM (Magenta square); LEDGF 402–411 (Black full circle).
Sup T1 cells were infected with wild-type HIV-1 at a MOI of 2, and the test compounds were added at different time points after infection (0, 2, 4,…, 24 h). Viral p24 production was determined at 48 h PI [59]. Dextran sulfate was tested at 20 µM, AZT at 2 µM, LEDGF 402-411, INr-1 and INr-2 at 12.5 µM.

HIV-1 IN = details: ref [36]; cited from earlier work
Procedure: Dextran sulfate, various peptides and AZT were added at different times to HIV-1 infected Sup-T1 cells and the amount of viral P24 protein—reflecting efficiency of virus infection—was estimated at 48 h PI.

HeLa TZM-bl cells = experiment: MTT cell toxicity assay, HeLa TZM-bl; format: cell-based; details: up to about 62 µM, Fig 4B
Procedure: (§1) Figure 4 Cell penetration and toxicity of INr peptides. (A) Fluorescein-labeled INr-1, INr-2, and IN-3 (a known nonpermeable peptide) each at 10 µM, were incubated for 2 h at 37°C with HeLa cells. The cells were then washed three times with PBS and visualized by confocal microscopy. (B) Cell toxicity was determined by MTT assay in HeLa TZM-bl cells. (C) Same as (B) but in H9 lymphocytes. Experimental conditions are described in Materials and Methods.
(§2) Following incubation of the cells with the indicated peptides, the medium was removed and the cells were further incubated in Earl's solution containing 0.3 mg/ml MTT for 1 h. Subsequently, the solution was removed and the cells were dissolved in 100 µl DMSO for 10 min at room temperature. The DMSO-solubilized cells were transferred to a 96-well ELISA plate and OD values were monitored at a wavelength of 570 nm.

H9 lymphocytes = experiment: MTT cell toxicity assay, H9; format: cell-based; details: up to about 62 µM, Fig 4C
Procedure: as §1, §2

HIV-1 infected cells = experiment: Cell death and syncytia formation in infected, INr-treated cells; format: cell-based; details: combination of the peptide and the virus; not shown
[1] = test system: viral Gag or Nef DNA sequences; format: cell-based, HIV-1; details: INr 12.5 µM or AZT 2 µM, 2 h before infection, 6 h after; Gag (A) or Nef (B) PCR; Fig 8A and B

Compound	Time of addition post infection up to which infection is inhibited (HIV-1 in Sup-T1 cells)	Toxic effect, HeLa TZM-bl cells (HeLa TZM-bl cells)	Toxic effect, H9 T-cell lymphocytes (H9 lymphocytes)	further results
dextran sulfate	≤ 4 h			
LEDGF 402–411: LEDGF-derived peptide (aa 402–411) which has been shown to block viral IN enzymatic activity (KIRRFKVSQV; UniProt O75475 402-411, looked up, fragment)	about 18 h			Inhibition of IN enzymatic activity by LEDGF-derived peptides (HIV-1 IN): block viral IN enzymatic activity in vitro and in vivo
CC[C@H](C)[C@H](NC(=O)[C@H](CCCCN)NC(=O)CNC(=O)[C@H](CCC(=O)O)NC(=O)[C@H](CC(C)C)NC(=O)[C@H](Cc1c[nH]cn1)NC(=O)[C@@H](NC(=O)[C@@H](N)Cc1c[nH]c2ccccc12)[C@@H](C)O)C(=O)N[C@H](C(=O)N[C@@H](CC(C)C)C(=O)N[C@H](C(=O)N[C@@H](C)C(=O)N[C@H](C(=O)N[C@@H](Cc1c[nH]cn1)C(=O)N[C@H](C(=O)N[C@@H](C)C(=O)O)C(C)C)C(C)C)C(C)C)[C@@H](C)CC [INr-1]		No toxic effect	No toxic effect	
WGSNFTSTTVKA [INr-2]		No toxic effect	No toxic effect	Cell death and syncytia formation with peptide and virus (HIV-1 infected cells): increase in cell death and syncytia formation
Cc1cn([C@H]2C[C@H](N=[N+]=[N-])[C@@H](CO)O2)c(=O)[nH]c1=O [AZT, azidothymidine]	≤ 10 h			Effect on reverse transcription / reverse-transcribed viral DNA [1]: reverse-transcribed viral DNA is absent
